# Measurements: article PMC8888861, “Inhibition of the NLRP3 Inflammasome Activation by Manoalide Ameliorates Experimental Autoimmune Encephalomyelitis Pathogenesis” (Frontiers in Cell and Developmental Biology, 2022)
# Molecular target: T1, NLRP3 (Mus musculus, UniProt Q8R4B8)
# T1 construct: endogenous NLRP3 in lysates of LPS-primed BMDMs
# Assay: DARTS (pronase protection) in BMDM lysates at […]
# Format: cell-based
# T1 sequence (Q8R4B8 whole entry): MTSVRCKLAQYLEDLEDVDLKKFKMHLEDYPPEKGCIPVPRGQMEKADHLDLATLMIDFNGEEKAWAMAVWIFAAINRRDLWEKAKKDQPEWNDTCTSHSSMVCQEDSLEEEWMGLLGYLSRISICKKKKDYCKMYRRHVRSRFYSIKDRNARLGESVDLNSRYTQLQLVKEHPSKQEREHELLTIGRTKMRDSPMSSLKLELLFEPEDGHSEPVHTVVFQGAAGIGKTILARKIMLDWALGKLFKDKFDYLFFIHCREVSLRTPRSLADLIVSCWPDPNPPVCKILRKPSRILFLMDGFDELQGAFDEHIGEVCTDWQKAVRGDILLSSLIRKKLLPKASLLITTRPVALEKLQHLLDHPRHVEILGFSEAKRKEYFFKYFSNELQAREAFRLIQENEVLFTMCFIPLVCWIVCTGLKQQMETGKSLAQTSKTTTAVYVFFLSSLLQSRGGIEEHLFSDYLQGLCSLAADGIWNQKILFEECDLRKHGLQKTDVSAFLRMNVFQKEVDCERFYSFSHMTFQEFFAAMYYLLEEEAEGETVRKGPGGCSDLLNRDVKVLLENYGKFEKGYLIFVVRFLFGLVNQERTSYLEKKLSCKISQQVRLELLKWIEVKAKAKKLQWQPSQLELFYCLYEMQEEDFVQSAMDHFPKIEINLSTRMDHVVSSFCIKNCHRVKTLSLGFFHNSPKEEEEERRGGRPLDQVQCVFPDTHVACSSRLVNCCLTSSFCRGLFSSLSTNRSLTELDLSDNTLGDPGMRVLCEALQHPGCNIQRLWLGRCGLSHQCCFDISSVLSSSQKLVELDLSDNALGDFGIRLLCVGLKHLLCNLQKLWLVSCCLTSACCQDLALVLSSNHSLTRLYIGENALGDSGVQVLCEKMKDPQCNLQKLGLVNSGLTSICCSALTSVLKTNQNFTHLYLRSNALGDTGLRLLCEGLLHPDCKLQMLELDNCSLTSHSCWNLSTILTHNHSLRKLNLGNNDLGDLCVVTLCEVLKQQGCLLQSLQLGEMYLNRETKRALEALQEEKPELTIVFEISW
compound,measurement,value
CC1=C(CC/C(C)=C/CCC2=CC[C@H](C3=CC(=O)O[C@H]3O)O[C@H]2O)C(C)(C)CCC1 [manoalide],DARTS (pronase protection) in BMDM lysates at 10 and 50 μM,Pronase-mediated degradation of NLRP3 is reversed in dose-dependent manner by manoalide.
